Test results from ChEMBL document CHEMBL1671627, “Increasing trends in antimicrobial resistance among clinically important anaerobes and Bacteroides fragilis isolates causing nosocomial infections: emerging resistance to carbapenems” (2008).
≈ marks a conversion by molar mass, not a printed value.

Columns and labels:
Clostridium tertium [1] = experiment: Antibacterial activity against beta-lactamase producing Clostridium tertium by CLSI agar dilution method; format: functional
Clostridium septicum [2] = experiment: Antibacterial activity against beta-lactamase producing Clostridium septicum by CLSI agar dilution method; format: functional
[3] = tested on: Fusobacterium necrophorum; experiment: Antibacterial activity against Fusobacterium necrophorum assessed as susceptible isolates by CLSI agar dilution method; format: functional
Bacteroides uniformis [4] = experiment: Antibacterial activity against beta-lactamase producing Bacteroides uniformis assessed as susceptible isolates by CLSI agar dilution method; format: functional
Clostridium perfringens = experiment: microbe, parasite or virus in culture; format: functional
[5] = tested on: Peptostreptococcus anaerobius; experiment: Antibacterial activity against beta-lactamase producing Peptostreptococcus anaerobius assessed as susceptible isolates by CLSI agar dilution method; format: functional
Bacteroides fragilis [6] = experiment: Antibacterial activity against Bacteroides fragilis by CLSI agar dilution method; format: functional
Bacteroides uniformis [7] = experiment: Antibacterial activity against beta-lactamase producing Bacteroides uniformis assessed as resistant isolates by CLSI agar dilution method; format: functional
Prevotella buccae [8] = experiment: Antibacterial activity against Prevotella buccae assessed as susceptible isolates by CLSI agar dilution method; format: functional, Segatella buccae
Bacteroides caccae [9] = experiment: Antibacterial activity against beta-lactamase producing Bacteroides caccae assessed as susceptible isolates by CLSI agar dilution method; format: functional
Fusobacterium varium [10] = experiment: Antibacterial activity against Fusobacterium varium assessed as susceptible isolates by CLSI agar dilution method; format: functional
Prevotella intermedia [11] = experiment: Antibacterial activity against Prevotella intermedia assessed as resistant isolates by CLSI agar dilution method; format: functional
Fusobacterium varium [12] = experiment: Antibacterial activity against Fusobacterium varium by CLSI agar dilution method; format: functional
Prevotella bivia [13] = experiment: Antibacterial activity against Prevotella bivia assessed as susceptible isolates by CLSI agar dilution method; format: functional
[14] = tested on: Bacteroides thetaiotaomicron; experiment: Antibacterial activity against beta-lactamase producing Bacteroides thetaiotaomicron by CLSI agar dilution method; format: functional
[15] = tested on: Clostridium paraputrificum; experiment: Antibacterial activity against beta-lactamase producing Clostridium paraputrificum by CLSI agar dilution method; format: functional
Veillonella parvula = experiment: Antibacterial activity against Veillonella parvula by CLSI agar dilution method; format: functional
[16] = tested on: Peptoniphilus asaccharolyticus; experiment: Antibacterial activity against beta-lactamase producing Peptoniphilus asaccharolyticus assessed as susceptible isolates by CLSI agar dilution method; format: functional
Prevotella intermedia [17] = experiment: Antibacterial activity against Prevotella intermedia assessed as susceptible isolates by CLSI agar dilution method; format: functional
Phocaeicola vulgatus [18] = experiment: Antibacterial activity against beta-lactamase producing Bacteroides vulgatus assessed as susceptible isolates by CLSI agar dilution method; format: functional
Parvimonas micra [19] = experiment: Antibacterial activity against beta-lactamase producing Micromonas micros assessed as susceptible isolates by CLSI agar dilution method; format: functional
Fusobacterium nucleatum [20] = experiment: Antibacterial activity against Fusobacterium nucleatum by CLSI agar dilution method; format: functional
Bacteroides caccae [21] = experiment: Antibacterial activity against beta-lactamase producing Bacteroides caccae assessed as resistant isolates by CLSI agar dilution method; format: functional
[22] = tested on: Prevotella melaninogenica; experiment: Antibacterial activity against Prevotella melaninogenica by CLSI agar dilution method; format: functional
[23] = tested on: Fusobacterium necrophorum; experiment: Antibacterial activity against Fusobacterium necrophorum by CLSI agar dilution method; format: functional
[24] = tested on: Clostridium paraputrificum; experiment: Antibacterial activity against beta-lactamase producing Clostridium paraputrificum assessed as resistant isolates by CLSI agar dilution method; format: functional
Prevotella intermedia [25] = experiment: Antibacterial activity against Prevotella intermedia by CLSI agar dilution method; format: functional
Finegoldia magna [26] = experiment: Antibacterial activity against beta-lactamase producing Finegoldia magna assessed as resistant isolates by CLSI agar dilution method; format: functional
Clostridium septicum [27] = experiment: Antibacterial activity against beta-lactamase producing Clostridium septicum assessed as susceptible isolates by CLSI agar dilution method; format: functional
Bacteroides caccae [28] = experiment: Antibacterial activity against beta-lactamase producing Bacteroides caccae by CLSI agar dilution method; format: functional
[29] = tested on: Prevotella melaninogenica; experiment: Antibacterial activity against Prevotella melaninogenica assessed as resistant isolates by CLSI agar dilution method; format: functional
Clostridium tertium [30] = experiment: Antibacterial activity against beta-lactamase producing Clostridium tertium assessed as susceptible isolates by CLSI agar dilution method; format: functional
Fusobacterium nucleatum [31] = experiment: Antibacterial activity against Fusobacterium nucleatum assessed as susceptible isolates by CLSI agar dilution method; format: functional
Fusobacterium mortiferum [32] = experiment: Antibacterial activity against Fusobacterium mortiferum by CLSI agar dilution method; format: functional
[33] = tested on: Clostridium paraputrificum; experiment: Antibacterial activity against beta-lactamase producing Clostridium paraputrificum assessed as susceptible isolates by CLSI agar dilution method; format: functional
Fusobacterium nucleatum [34] = experiment: Antibacterial activity against Fusobacterium nucleatum assessed as resistant isolates by CLSI agar dilution method; format: functional
Phocaeicola vulgatus [35] = experiment: Antibacterial activity against beta-lactamase producing Bacteroides vulgatus assessed as resistant isolates by CLSI agar dilution method; format: functional
[36] = tested on: Prevotella melaninogenica; experiment: Antibacterial activity against Prevotella melaninogenica assessed as susceptible isolates by CLSI agar dilution method; format: functional
Bacteroides fragilis [37] = experiment: Antibacterial activity against Bacteroides fragilis assessed as susceptible isolates by CLSI agar dilution method; format: functional
Fusobacterium mortiferum [38] = experiment: Antibacterial activity against Fusobacterium mortiferum assessed as resistant isolates by CLSI agar dilution method; format: functional
Finegoldia magna [39] = experiment: Antibacterial activity against beta-lactamase producing Finegoldia magna assessed as susceptible isolates by CLSI agar dilution method; format: functional
Prevotella bivia [40] = experiment: Antibacterial activity against Prevotella bivia assessed as resistant isolates by CLSI agar dilution method; format: functional
Prevotella buccae [41] = experiment: Antibacterial activity against Prevotella buccae by CLSI agar dilution method; format: functional; details: Segatella buccae
Phocaeicola vulgatus [42] = experiment: Antibacterial activity against beta-lactamase producing Bacteroides vulgatus by CLSI agar dilution method; format: functional
Clostridium septicum [43] = experiment: Antibacterial activity against beta-lactamase producing Clostridium septicum assessed as resistant isolates by CLSI agar dilution method; format: functional
[44] = tested on: Bacteroides thetaiotaomicron; experiment: Antibacterial activity against beta-lactamase producing Bacteroides thetaiotaomicron assessed as susceptible isolates by CLSI agar dilution method; format: functional
[45] = tested on: Peptoniphilus asaccharolyticus; experiment: Antibacterial activity against beta-lactamase producing Peptoniphilus asaccharolyticus assessed as resistant isolates by CLSI agar dilution method; format: functional
Bacteroides fragilis [46] = experiment: Antibacterial activity against Bacteroides fragilis assessed as resistant isolates by CLSI agar dilution method; format: functional
Fusobacterium varium [47] = experiment: Antibacterial activity against Fusobacterium varium assessed as resistant isolates by CLSI agar dilution method; format: functional
[48] = tested on: Peptoniphilus asaccharolyticus; experiment: Antibacterial activity against beta-lactamase producing Peptoniphilus asaccharolyticus by CLSI agar dilution method; format: functional
Bacteroides uniformis [49] = experiment: Antibacterial activity against beta-lactamase producing Bacteroides uniformis by CLSI agar dilution method; format: functional
[50] = tested on: Fusobacterium necrophorum; experiment: Antibacterial activity against Fusobacterium necrophorum assessed as resistant isolates by CLSI agar dilution method; format: functional
Parvimonas micra [51] = experiment: Antibacterial activity against beta-lactamase producing Micromonas micros by CLSI agar dilution method; format: functional
[52] = tested on: Peptostreptococcus anaerobius; experiment: Antibacterial activity against beta-lactamase producing Peptostreptococcus anaerobius assessed as resistant isolates by CLSI agar dilution method; format: functional
Prevotella bivia [53] = experiment: Antibacterial activity against Prevotella bivia by CLSI agar dilution method; format: functional
Finegoldia magna [54] = experiment: Antibacterial activity against beta-lactamase producing Finegoldia magna by CLSI agar dilution method; format: functional
Prevotella buccae [55] = experiment: Antibacterial activity against Prevotella buccae assessed as resistant isolates by CLSI agar dilution method; format: functional, Segatella buccae
Fusobacterium mortiferum [56] = experiment: Antibacterial activity against Fusobacterium mortiferum assessed as susceptible isolates by CLSI agar dilution method; format: functional
Clostridium tertium [57] = experiment: Antibacterial activity against beta-lactamase producing Clostridium tertium assessed as resistant isolates by CLSI agar dilution method; format: functional
Parvimonas micra [58] = experiment: Antibacterial activity against beta-lactamase producing Micromonas micros assessed as resistant isolates by CLSI agar dilution method; format: functional
[59] = tested on: Peptostreptococcus anaerobius; experiment: Antibacterial activity against beta-lactamase producing Peptostreptococcus anaerobius by CLSI agar dilution method; format: functional

CCC[C@@H]1C[C@@H](C(=O)N[C@@H]([C@H]2O[C@H](SC)[C@H](O)[C@@H](O)[C@H]2O)[C@H](C)Cl)N(C)C1 [CLINDAMYCIN]
MIC50 (Clostridium tertium [1]): 1 µg/mL (≈ 2.35 µM)
MIC90 (Clostridium tertium [1]): 8 µg/mL (≈ 18.8 µM)
MIC50 (Clostridium septicum [2]): 1 µg/mL (≈ 2.35 µM)
MIC90 (Clostridium septicum [2]): 8 µg/mL (≈ 18.8 µM)
Activity [3]: 85%
Activity (Bacteroides uniformis [4]): 57%
MIC50 (Clostridium perfringens): 1 µg/mL (≈ 2.35 µM)
MIC90 (Clostridium perfringens): 8 µg/mL (≈ 18.8 µM)
Activity [5]: 88%
MIC50 (Bacteroides fragilis [6]): 1 µg/mL (≈ 2.35 µM)
MIC90 (Bacteroides fragilis [6]): > 128 µg/mL
Activity (Bacteroides uniformis [7]): 39%
Activity (Prevotella buccae [8]): 69%
Activity (Bacteroides caccae [9]): 57%
Activity (Fusobacterium varium [10]): 85%
Activity (Prevotella intermedia [11]): 31%
MIC50 (Fusobacterium varium [12]): 0.25 µg/mL (≈ 0.588 µM)
MIC90 (Fusobacterium varium [12]): 4 µg/mL (≈ 9.41 µM)
Activity (Prevotella bivia [13]): 69%
MIC50 [14]: 4 µg/mL (≈ 9.41 µM)
MIC90 [14]: > 128 µg/mL
MIC50 [15]: 1 µg/mL (≈ 2.35 µM)
MIC90 [15]: 8 µg/mL (≈ 18.8 µM)
MIC (Veillonella parvula): 0.06 µg/mL (≈ 0.141 µM)
Activity [16]: 88%
Activity (Prevotella intermedia [17]): 69%
Activity (Phocaeicola vulgatus [18]): 57%
Activity (Parvimonas micra [19]): 88%
MIC50 (Fusobacterium nucleatum [20]): 0.25 µg/mL (≈ 0.588 µM)
MIC90 (Fusobacterium nucleatum [20]): 4 µg/mL (≈ 9.41 µM)
Activity (Bacteroides caccae [21]): 39%
MIC50 [22]: 0.12 µg/mL (≈ 0.282 µM)
MIC90 [22]: > 128 µg/mL
MIC50 [23]: 0.25 µg/mL (≈ 0.588 µM)
MIC90 [23]: 4 µg/mL (≈ 9.41 µM)
Activity [24]: 14%
MIC50 (Prevotella intermedia [25]): 0.12 µg/mL (≈ 0.282 µM)
MIC90 (Prevotella intermedia [25]): > 128 µg/mL
Activity (Finegoldia magna [26]): 9%
Activity (Clostridium septicum [27]): 75%
MIC50 (Bacteroides caccae [28]): 2 µg/mL (≈ 4.71 µM)
MIC90 (Bacteroides caccae [28]): > 128 µg/mL
Activity [29]: 31%
Activity (Clostridium tertium [30]): 75%
Activity (Fusobacterium nucleatum [31]): 85%
MIC50 (Fusobacterium mortiferum [32]): 0.25 µg/mL (≈ 0.588 µM)
MIC90 (Fusobacterium mortiferum [32]): 4 µg/mL (≈ 9.41 µM)
Activity [33]: 75%
Activity (Fusobacterium nucleatum [34]): 7%
Activity (Phocaeicola vulgatus [35]): 39%
Activity [36]: 69%
Activity (Bacteroides fragilis [37]): 63%
Activity (Fusobacterium mortiferum [38]): 7%
Activity (Finegoldia magna [39]): 88%
Activity (Prevotella bivia [40]): 31%
MIC50 (Prevotella buccae [41]): 0.12 µg/mL (≈ 0.282 µM)
MIC90 (Prevotella buccae [41]): > 128 µg/mL
MIC50 (Phocaeicola vulgatus [42]): 2 µg/mL (≈ 4.71 µM)
MIC90 (Phocaeicola vulgatus [42]): > 128 µg/mL
Activity (Clostridium septicum [43]): 14%
Activity [44]: 43%
Activity [45]: 9%
Activity (Bacteroides fragilis [46]): 37%
Activity (Fusobacterium varium [47]): 7%
MIC50 [48]: 0.12 µg/mL (≈ 0.282 µM)
MIC90 [48]: 4 µg/mL (≈ 9.41 µM)
MIC50 (Bacteroides uniformis [49]): 2 µg/mL (≈ 4.71 µM)
MIC90 (Bacteroides uniformis [49]): > 128 µg/mL
Activity [50]: 7%
MIC50 (Parvimonas micra [51]): 0.12 µg/mL (≈ 0.282 µM)
MIC90 (Parvimonas micra [51]): 4 µg/mL (≈ 9.41 µM)
Activity [52]: 9%
MIC50 (Prevotella bivia [53]): 0.12 µg/mL (≈ 0.282 µM)
MIC90 (Prevotella bivia [53]): > 128 µg/mL
MIC50 (Finegoldia magna [54]): 0.12 µg/mL (≈ 0.282 µM)
MIC90 (Finegoldia magna [54]): 4 µg/mL (≈ 9.41 µM)
Activity (Prevotella buccae [55]): 31%
Activity (Fusobacterium mortiferum [56]): 85%
Activity (Clostridium tertium [57]): 14%
Activity (Parvimonas micra [58]): 9%
MIC50 [59]: 0.12 µg/mL (≈ 0.282 µM)
MIC90 [59]: 4 µg/mL (≈ 9.41 µM)
